Tests used:
[1] = tested on: barley; assay: Test B preemergence/postemergence greenhouse plant response rating 0 to 10; format: in vivo, Hordeum vulgare; conditions: 0 to 10 scale
In short: (§1)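 Postemergence treatment of plants two to eighteen cm tall ran alongside preemergence treatment of planted seed, each using compound in a non-phytotoxic solvent.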

[2] = tested on: bedstraw; assay: as above; format: in vivo, Galium aparine; conditions: 0 to 10 scale
In short: as §1

[3] = tested on: blackgrass; assay: as above; format: in vivo, Alopecurus myosuroides; conditions: 0 to 10 scale
In short: as §1

[4] = tested on: cheatgrass; assay: as above; format: in vivo, Bromus secalinus; conditions: 0 to 10 scale
In short: as §1

[5] = tested on: cotton; assay: as above; format: in vivo, Gossypium hirsutum; conditions: 0 to 10 scale
In short: as §1

[6] = tested on: rape; assay: as above; format: in vivo, Brassica napus; conditions: 0 to 10 scale
In short: as §1

[7] = tested on: rice; assay: as above; format: in vivo, Oryza sativa; conditions: 0 to 10 scale
In short: as §1

[8] = tested on: sorghum; assay: as above; format: in vivo, Sorghum bicolor; conditions: 0 to 10 scale
In short: as §1

[9] = tested on: wheat; assay: as above; format: in vivo, Triticum aestivum; conditions: 0 to 10 scale
In short: as §1

[10] = tested on: barley; assay: Test C preemergence/postemergence greenhouse plant response rating 0 to 100; format: in vivo, Hordeum vulgare; conditions: POSTEMERGENCE; for Plant response rating Barley Igri: 0 to 100 scale
In short: (§2)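 Compounds in non-phytotoxic solvent applied preemergence to sandy loam one day after planting, postemergence at the 1–4 leaf stage, or to ~2.5 cm floodwater over silt loam.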

[11] = tested on: bedstraw; assay: as above; format: in vivo, Galium aparine; conditions: POSTEMERGENCE; for Plant response rating, Bedstraw: 0 to 100 scale
In short: as §2

[12] = tested on: blackgrass; assay: as above; format: in vivo, Alopecurus myosuroides; conditions: POSTEMERGENCE; for Plant response rating, Blackgrass: 0 to 100 scale
In short: as §2

[13] = tested on: pigweed; assay: as above; format: in vivo, Amaranthusretroflexus; conditions: POSTEMERGENCE; for Plant response rating Pigweed: 0 to 100 scale
In short: as §2

[14] = tested on: ryegrass; assay: as above; format: in vivo, Lolium multiflorum; conditions: POSTEMERGENCE
In short: as §2

[15] = tested on: sorghum; assay: as above; format: in vivo, Sorghum bicolor; conditions: POSTEMERGENCE; for Plant response rating, Sorghum: 0 to 100 scale
In short: as §2

[16] = tested on: sugar beet; assay: as above; format: in vivo, Beta vulgaris; conditions: POSTEMERGENCE; for Plant response rating, Sugar beet: 0 to 100 scale
In short: as §2

[17] = tested on: wild buckwheat; assay: as above; format: in vivo, Polygonum convolvulus; conditions: POSTEMERGENCE; for Plant response rating, Wild buckwheat: 0 to 100 scale
In short: as §2

[18] = tested on: duck salad; assay: Test C flood test plant response rating 0 to 100; format: in vivo, Heteranthera limosa; conditions: for Plant response rating (0 to 100), Duck salad: under POSTEMERGENCE head (flood test species); for Plant response rating Duck salad: flood test species listed under POSTEMERGENCE, 0 to 100 scale
In short: as §2

`CC(C)OC(=O)COc1cc(-c2nn3c(c2Cl)CCCC3)c(F)cc1Cl` [Compound 39] was tested, and the “Plant response rating, Barley” value ([1]; POSTEMERGENCE, Rate 50 g/ha) was 4, the “Plant response rating, Barley” value ([1]; POSTEMERGENCE, Rate 200 g/ha) was 6 and the “Plant response rating, Barley” value ([1]; PREEMERGENCE, Rate 50 g/ha) was 0. The “Plant response rating, Barley” value ([1]; Rate 200 g/ha, PREEMERGENCE) was 0, the “Plant response rating, Bedstraw” value ([2]; POSTEMERGENCE, Rate 200 g/ha) was 10 and the “Plant response rating, Bedstraw” value ([2]; PREEMERGENCE, Rate 50 g/ha) was 4. The “Plant response rating, Bedstraw” value ([2]; Rate 200 g/ha, PREEMERGENCE) was 9, the “Plant response rating, Blackgrass” value ([3]; POSTEMERGENCE, Rate 50 g/ha) was 4 and the “Plant response rating, Blackgrass” value ([3]; POSTEMERGENCE, Rate 200 g/ha) was 4. The “Plant response rating, Blackgrass” value ([3]; PREEMERGENCE, Rate 50 g/ha) was 0, the “Plant response rating, Blackgrass” value ([3]; Rate 200 g/ha, PREEMERGENCE) was 2 and the “Plant response rating, Cheatgrass” value ([4]; POSTEMERGENCE, Rate 50 g/ha) was 4. The “Plant response rating, Cheatgrass” value ([4]; POSTEMERGENCE, Rate 200 g/ha) was 4, the “Plant response rating, Cheatgrass” value ([4]; PREEMERGENCE, Rate 50 g/ha) was 0 and the “Plant response rating, Cheatgrass” value ([4]; Rate 200 g/ha, PREEMERGENCE) was 2. The “Plant response rating, Cotton” value ([5]; POSTEMERGENCE, Rate 50 g/ha) was 10, the “Plant response rating, Cotton” value ([5]; POSTEMERGENCE, Rate 200 g/ha) was 10 and the “Plant response rating, Cotton” value ([5]; PREEMERGENCE, Rate 50 g/ha) was 0. The “Plant response rating, Cotton” value ([5]; Rate 200 g/ha, PREEMERGENCE) was 0, the “Plant response rating, Rape” value ([6]; POSTEMERGENCE, Rate 50 g/ha) was 5 and the “Plant response rating, Rape” value ([6]; PREEMERGENCE, Rate 50 g/ha) was 8. The “Plant response rating, Rape” value ([6]; Rate 200 g/ha, POSTEMERGENCE) was 10, the “Plant response rating, Rape” value ([6]; Rate 200 g/ha, PREEMERGENCE) was 10 and the “Plant response rating, Rice” value ([7]; POSTEMERGENCE, Rate 50 g/ha) was 4. For the same molecule, the “Plant response rating, Rice” value ([7]; PREEMERGENCE, Rate 50 g/ha) was 0, the “Plant response rating, Rice” value ([7]; Rate 200 g/ha, POSTEMERGENCE) was 6 and the “Plant response rating, Rice” value ([7]; Rate 200 g/ha, PREEMERGENCE) was 0. For the same molecule, the “Plant response rating, Sorghum” value ([8]; POSTEMERGENCE, Rate 50 g/ha) was 5, the “Plant response rating, Sorghum” value ([8]; PREEMERGENCE, Rate 50 g/ha) was 0 and the “Plant response rating, Sorghum” value ([8]; Rate 200 g/ha, POSTEMERGENCE) was 5. The “Plant response rating, Sorghum” value ([8]; Rate 200 g/ha, PREEMERGENCE) was 0, the “Plant response rating, Wheat” value ([9]; POSTEMERGENCE, Rate 50 g/ha) was 4 and the “Plant response rating, Wheat” value ([9]; PREEMERGENCE, Rate 50 g/ha) was 0. For the same molecule, the “Plant response rating, Wheat” value ([9]; Rate 200 g/ha, POSTEMERGENCE) was 5, the “Plant response rating, Wheat” value ([9]; Rate 200 g/ha, PREEMERGENCE) was 0 and the “Plant response rating Barley Igri” value ([10]; 62 g/ha) was 30. The “Plant response rating Barley Igri” value ([10]; 125 g/ha) was 40, the “Plant response rating (0 to 100), Barley Igri” value ([10]; Rate 16 g/ha) was 20 and the “Plant response rating (0 to 100), Barley Igri” value ([10]; Rate 31 g/ha) was 30. For the same molecule, the “Plant response rating, Bedstraw” value ([11]; 62 g/ha) was 70, the “Plant response rating, Bedstraw” value ([11]; 125 g/ha) was 100 and the “Plant response rating (0 to 100), Bedstraw” value ([11]; Rate 31 g/ha) was 60. For the same molecule, the “Plant response rating, Blackgrass” value ([12]; 62 g/ha) was 30, the “Plant response rating, Blackgrass” value ([12]; 125 g/ha) was 40 and the “Plant response rating (0 to 100), Blackgrass” value ([12]; Rate 16 g/ha) was 10. The “Plant response rating (0 to 100), Blackgrass” value ([12]; Rate 31 g/ha) was 10, the “Plant response rating Pigweed” value ([13]; 62 g/ha) was 100 and the “Plant response rating Pigweed” value ([13]; 125 g/ha) was 100. The “Plant response rating (0 to 100), Pigweed” value ([13]; Rate 16 g/ha) was 90, the “Plant response rating (0 to 100), Pigweed” value ([13]; Rate 31 g/ha) was 100 and the “Plant response rating Ryegrass” value ([14]; 125 g/ha, 0 to 100 scale) was 20. The “Plant response rating (0 to 100), Ryegrass” value ([14]; Rate 16 g/ha) was 10, the “Plant response rating (0 to 100), Ryegrass” value ([14]; Rate 31 g/ha) was 10 and the “Plant response rating, Sorghum” value ([15]; 62 g/ha) was 50. The “Plant response rating, Sorghum” value ([15]; 125 g/ha) was 60, the “Plant response rating (0 to 100), Sorghum” value ([15]; Rate 16 g/ha) was 20 and the “Plant response rating (0 to 100), Sorghum” value ([15]; Rate 31 g/ha) was 30. The “Plant response rating, Sugar beet” value ([16]; 62 g/ha) was 100, the “Plant response rating, Sugar beet” value ([16]; 125 g/ha) was 100 and the “Plant response rating (0 to 100), Sugar beet” value ([16]; Rate 16 g/ha) was 100. The “Plant response rating (0 to 100), Sugar beet” value ([16]; Rate 31 g/ha) was 100, the “Plant response rating, Wild buckwheat” value ([17]; 62 g/ha) was 90 and the “Plant response rating, Wild buckwheat” value ([17]; 125 g/ha) was 100. The “Plant response rating (0 to 100), Wild buckwheat” value ([17]; Rate 31 g/ha) was 70, the “Plant response rating (0 to 100), Duck salad” value ([18]; Rate 16 g/ha) was 0 and the “Plant response rating (0 to 100), Duck salad” value ([18]; Rate 31 g/ha) was 0. The “Plant response rating Duck salad” value ([18]; 62 g/ha) was 0 and the “Plant response rating Duck salad” value ([18]; 125 g/ha) was 0.
